{
  "source": "patent US7147872B2",
  "about": "“Environmentally compatible processes compositions and materials treated thereby” (Pimi Marion Holdings, Ltd., priority 1998, dated 2006)",
  "system": "potato seeds",
  "assay": "Dry fog treatment of potato seeds to prevent sprouting, H2O2 with Ag and Cu ion (Example 19)",
  "format": "in vivo",
  "settings": "H2O2 500 PPM, Ag ion 0, Cu ion 0; 90% RH, 10° C.",
  "excerpt": "The results were as follows:",
  "data": [
    {"smiles": "OO", "note": "[H2O2, hydrogen peroxide]", "values": [
      {"measurement": "Sprouting (%) one month", "value": 8, "unit": "%"},
      {"measurement": "Sprouting (%) three months", "value": 32, "unit": "%"},
      {"measurement": "Sprouting (%) two months", "value": 22, "unit": "%"}
    ]}
  ]
}
